Experimental data from patent US20260200849A1, “CATIONIC LIPIDS AND PREPARATION METHOD THEREOF” (RiboX Therapeutics HK Limited, priority 2024, published 2026).

Assays:
[1] = LNP size and polydispersity index (PDI) by dynamic light scattering (Zetasizer); assay type: physicochemical; settings: for Size (nm): Formulation No. 001 (Ionizable lipid:DSPC:cholesterol:DMG-PEG2000 = 50:10:38.5:1.5, N/P 6), RNA No. 331; for PDI: Formulation No. 001, RNA No. 331
Protocol: (§1) The LNP size and polydispersity index (PDI), determined by dynamic light scattering (DLS), and zeta potential were measured by a Zetasizer machine (Malvern). RNA concentration and encapsulation efficacy (EE %) were analyzed by the Quant-IT Ribogreen kit by calculating the percentage encapsulation at 100%—(RNA-LNPs/RNA-LNPs with Triton X-100).

[2] = RNA encapsulation efficacy (EE %) by Quant-IT Ribogreen kit; assay type: physicochemical; settings: LNP, Formulation No. 001, RNA No. 331
Protocol: as §1

Hep G2 cells [3] = assay: In vitro expression: luciferase activity in Hep G2 cells transfected with RNA-LNPs; assay type: cell-based; settings: Formulation No. 001, RNA No. 331 (firefly-luciferase), 100 ng/mL RNA-LNPs, 72 hours post transfection
Protocol: 2E5 Hep G2 cells were transfected with 100 ng/mL of RNA-LNPs encoding for firefly-luciferase. At 72 hours post transfection, the cells were washed and lysed. The luciferase expression (2-well repeat) was determined in the cell lysates with the luciferase assay reagent kit (Promega), according to the kit protocol, luciferase activity was measured by a luminometer.

Hep G2 cells [4] = assay: In vitro toxicity: Hep G2 cell viability by CellTiter-Glo; assay type: cell-based; settings: Formulation No. 001, RNA No. 331, 1 μg/mL RNA-LNPs, 72 hours post transfection, cell only = 100%
Protocol: 2E5 Hep G2 cells were transfected with 1 μg/mL RNA-LNPs. At 72 hours post transfection, cell viability (2-well repeat) was determined with the CellTiter-Glo® reagent kit, according to the kit protocol, measured by a luminometer. Cell only as control (100%).
The cell viability was calculated according to the following formula: […]

Balb/c mice = assay: In vivo expression by IV, 0.05 mg/kg luciferase RNA-LNPs, IVIS luminescence; settings: Formulation No. 001, RNA No. 331; female Balb/c mice, 0.05 mg*kg−1 intravenous, 24-hours post injection
Protocol: 7-8 week old, female Balb/c mice (N=3) were injected with 0.05 mg*kg−1 of RNA-LNPs encoding for firefly-luciferase by intravenous injection. At 24- and 72-hours post injection, animals were intraperitoneally injected with 15 mg/mi of Luciferin substrate and whole-body luminescence was determined by a bioluminescent in vivo imaging system (IVIS).
7-8 week old, female Balb/c mice (N=3) were injected with 0.05 mg*kg−1 of RNA-LNPs encoding for firefly-luciferase by intravenous injection. At 24-hours post injection, animals were intraperitoneally injected with 15 mg/ml of Luciferin substrate and whole-body/liver/spleen luminescence was determined by a bioluminescent in vivo imaging system (IVIS).

MCP-1 = assay: In vivo tolerability by IV: serum MCP-1 by Luminex; design: species or system C57BL/6J mice; settings: Formulation No. 001, RNA No. 331, male C57BL/6J mice, 1.0 mg*kg/1 intravenous; for MCP-1 at 2 h: 2 hours post injection; for MCP-1 at 24 h: 24 hours post injection
Protocol: (§2) 6-8 week old, male C57BL/6J mice (N=3) were injected with 1.0 mg*kg/1 of RNA-LNPs encoding for firefly-luciferase by intravenous injection. At 2- and 24-hours post injection, about 40 μL blood was harvested and immediately added to the procoagulant containing tube. Stand for 30 min at room temperature and then centrifuged at 2500 g×10 min to obtain serum. About 15 μL serum samples were aliquoted for cytokine (MCP-1 and IL-6) detection by Luminex (ProcartaPlex Mouse 2-plex, Thermo). PBS group as negative control.
(§3) 6-8 week old, male C57BL/6J mice (N=3) were injected with 1.0 mg*kg−1 of RNA-LNPs encoding for firefly-luciferase by intravenous injection. At 2- and 24-hours post injection, about 40 μL blood was harvested and immediately added to the procoagulant containing tube. Stand for 30 min at room temperature and then centrifuged at 2500 g×10 min to obtain serum. About 15 μL serum samples were aliquoted for cytokine (MCP-1 and IL-6) detection by Luminex (ProcartaPlex Mouse 2-plex, Thermo). PBS group as negative control.

IL-6 = assay: In vivo tolerability by IV: serum IL-6 by Luminex; design: species or system C57BL/6J mice; settings: Formulation No. 001, RNA No. 331, male C57BL/6J mice, 1.0 mg*kg/1 intravenous; for IL-6 at 2 h: 2 hours post injection; for IL-6 at 24 h: 24 hours post injection
Protocol: as §2, §3

C57BL/6J mice = assay: In vivo expression by IV, 1.0 mg/kg luciferase RNA-LNPs, whole-body and organ IVIS luminescence; settings: Formulation No. 001, RNA No. 331; male C57BL/6J mice, 1.0 mg*kg−1 intravenous, 24-hours post injection
Protocol: 6-8 week old, male C57BL/6J mice (N=3) were injected with 1.0 mg*kg−1 of RNA-LNPs encoding for firefly-luciferase by intravenous injection. At 24-hours post injection, animals were intraperitoneally injected with 15 mg/ml of Luciferin substrate and whole-body/liver/spleen/kidney/small intestine/large intestine luminescence were determined by a bioluminescent in vivo imaging system (IVIS).
6-8 week old, male C57BL/6J mice (N=3) were injected with 1.0 mg*kg−1 of RNA-LNPs encoding for firefly-luciferase by intravenous injection. At 24-hours post injection, animals were intraperitoneally injected with 15 mg/nil of Luciferin substrate and whole-body/liver/spleen/kidney/small intestine/large intestine luminescence were determined by a bioluminescent in vivo imaging system (IVIS).

SMILES: CCCCCCCC/C=C\CCCCCCCC(=O)NC(COC(=O)NCCN1CCCCC1)C(=O)OCCCCCCCC(=O)OC(CCCCCCCC)CCCCCCCC (stereo not drawn) [Lipid 736]
- Size (nm) [1]: 66.29 nm
- PDI [1]: 0.01
- EE (%) [2]: 91.61%
- In vitro Expression (Mean) (Hep G2 cells [3]): 7.05E+05
- In vitro cell viability (%) (Mean) (Hep G2 cells [4]): 73.49%
- Liver (p/s) (Mean) (Balb/c mice): 2.87E+08 p/s
- Spleen (p/s) (Mean) (Balb/c mice): 1.39E+08 p/s
- Whole body (p/s) (Mean) (Balb/c mice): 2.08E+09 p/s
- MCP-1 at 2 h (MCP-1): 3830 pg/mL
- MCP-1 at 24 h (MCP-1): 260 pg/mL
- IL-6 at 2 h (IL-6): 442 pg/mL
- IL-6 at 24 h (IL-6): 3.03 pg/mL
- Kidney (p/s) (C57BL/6J mice): 5.22E+07 p/s
- Large intestine (p/s) (C57BL/6J mice): 1.78E+08 p/s
- Liver (p/s) (C57BL/6J mice): 2.87E+09 p/s
- Small intestine (p/s) (C57BL/6J mice): 6.48E+08 p/s
- Spleen (p/s) (C57BL/6J mice): 3.38E+08 p/s
- Whole body (p/s) (C57BL/6J mice): 5.28E+09 p/s

SMILES: CCCCCCCC/C=C\CCCCCCCC(=O)NC(COC(=O)NCCN1CCCCC1)C(=O)OCCCCCC(=O)OCC(CCCCCCCC)CCCCCCCCCC (stereo not drawn) [Lipid 792]
- Size (nm) [1]: 64.18 nm
- PDI [1]: 0.02
- EE (%) [2]: 92.11%
- In vitro Expression (Mean) (Hep G2 cells [3]): 8.10E+05
- In vitro cell viability (%) (Mean) (Hep G2 cells [4]): 81.74%
- Liver (p/s) (Mean) (Balb/c mice): 2.90E+08 p/s
- Spleen (p/s) (Mean) (Balb/c mice): 1.01E+08 p/s
- Whole body (p/s) (Mean) (Balb/c mice): 2.18E+09 p/s
- MCP-1 at 2 h (MCP-1): 1620 pg/mL
- MCP-1 at 24 h (MCP-1): 216 pg/mL
- IL-6 at 2 h (IL-6): 25.9 pg/mL
- IL-6 at 24 h (IL-6): 6.86 pg/mL
- Kidney (p/s) (C57BL/6J mice): 3.20E+07 p/s
- Large intestine (p/s) (C57BL/6J mice): 8.04E+07 p/s
- Liver (p/s) (C57BL/6J mice): 2.74E+09 p/s
- Small intestine (p/s) (C57BL/6J mice): 5.01E+08 p/s
- Spleen (p/s) (C57BL/6J mice): 3.20E+08 p/s
- Whole body (p/s) (C57BL/6J mice): 2.76E+09 p/s

SMILES: CCCCC/C=C\C/C=C\CCCCCCCCOC(=O)NC(COC(=O)NCCN1CCCCCC1)C(=O)OCCCCCCCC(=O)OC(CCCCCCCC)CCCCCCCC (stereo not drawn) [Lipid 858]
- Size (nm) [1]: 63.50 nm
- PDI [1]: 0.04
- EE (%) [2]: 91.60%
- In vitro Expression (Mean) (Hep G2 cells [3]): 2.88E+05
- In vitro cell viability (%) (Mean) (Hep G2 cells [4]): 92.44%
- Liver (p/s) (Mean) (Balb/c mice): 3.71E+08 p/s
- Spleen (p/s) (Mean) (Balb/c mice): 6.61E+07 p/s
- Whole body (p/s) (Mean) (Balb/c mice): 8.74E+08 p/s
- MCP-1 at 2 h (MCP-1): 1360 pg/mL
- MCP-1 at 24 h (MCP-1): 111 pg/mL
- IL-6 at 2 h (IL-6): 23 pg/mL
- IL-6 at 24 h (IL-6): 3.13 pg/mL
- Kidney (p/s) (C57BL/6J mice): 2.31E+07 p/s
- Large intestine (p/s) (C57BL/6J mice): 1.58E+08 p/s
- Liver (p/s) (C57BL/6J mice): 8.64E+08 p/s
- Small intestine (p/s) (C57BL/6J mice): 6.45E+08 p/s
- Spleen (p/s) (C57BL/6J mice): 2.33E+08 p/s
- Whole body (p/s) (C57BL/6J mice): 1.92E+09 p/s

SMILES: CCCCC/C=C\C/C=C\CCCCCCCCOC(=O)NC(COC(=O)NCCN1CCCCCC1)C(=O)OCCCCCCCCOC(=O)C(CCCCCC)CCCCCCCC (stereo not drawn) [Lipid 881]
- Size (nm) [1]: 61.73 nm
- PDI [1]: 0.02
- EE (%) [2]: 90.26%
- In vitro Expression (Mean) (Hep G2 cells [3]): 4.02E+05
- In vitro cell viability (%) (Mean) (Hep G2 cells [4]): 86.94%
- Liver (p/s) (Mean) (Balb/c mice): 2.25E+08 p/s
- Spleen (p/s) (Mean) (Balb/c mice): 6.14E+07 p/s
- Whole body (p/s) (Mean) (Balb/c mice): 1.18E+09 p/s
- MCP-1 at 2 h (MCP-1): 1190 pg/mL
- MCP-1 at 24 h (MCP-1): 253 pg/mL
- IL-6 at 2 h (IL-6): 12.8 pg/mL
- IL-6 at 24 h (IL-6): 6.69 pg/mL
- Kidney (p/s) (C57BL/6J mice): 4.26E+07 p/s
- Large intestine (p/s) (C57BL/6J mice): 1.30E+08 p/s
- Liver (p/s) (C57BL/6J mice): 1.65E+09 p/s
- Small intestine (p/s) (C57BL/6J mice): 8.57E+08 p/s
- Spleen (p/s) (C57BL/6J mice): 2.37E+08 p/s
- Whole body (p/s) (C57BL/6J mice): 2.92E+09 p/s

SMILES: CCCCCCCCC(CCCCCC)C(=O)OCCCCCCCCOC(=O)NC(COC(=O)NCCN(C)C)C(=O)OCCCCCCCCOC(=O)C(CCCCCC)CCCCCCCC (stereo not drawn) [Lipid 883]
- Size (nm) [1]: 69.88 nm
- PDI [1]: 0.05
- EE (%) [2]: 96.96%
- In vitro Expression (Mean) (Hep G2 cells [3]): 2.82E+05
- In vitro cell viability (%) (Mean) (Hep G2 cells [4]): 93.23%
- Liver (p/s) (Mean) (Balb/c mice): 1.59E+08 p/s
- Spleen (p/s) (Mean) (Balb/c mice): 2.09E+07 p/s
- Whole body (p/s) (Mean) (Balb/c mice): 1.60E+09 p/s
- MCP-1 at 2 h (MCP-1): 1860 pg/mL
- MCP-1 at 24 h (MCP-1): 220 pg/mL
- IL-6 at 2 h (IL-6): 16.4 pg/mL
- IL-6 at 24 h (IL-6): 5.01 pg/mL
- Kidney (p/s) (C57BL/6J mice): 6.37E+06 p/s
- Large intestine (p/s) (C57BL/6J mice): 3.50E+07 p/s
- Liver (p/s) (C57BL/6J mice): 3.22E+09 p/s
- Small intestine (p/s) (C57BL/6J mice): 1.46E+08 p/s
- Spleen (p/s) (C57BL/6J mice): 2.19E+08 p/s
- Whole body (p/s) (C57BL/6J mice): 1.65E+09 p/s

SMILES: CCCCCCCCC(CCCCCC)C(=O)OCCCCCCCCOC(=O)NC(COC(=O)NCCN1CCCCCC1)C(=O)OCCCCCCCCOC(=O)C(CCCCCC)CCCCCCCC (stereo not drawn) [Lipid 889]
- Size (nm) [1]: 61.64 nm
- PDI [1]: 0.02
- EE (%) [2]: 95.41%
- In vitro Expression (Mean) (Hep G2 cells [3]): 2.46E+05
- In vitro cell viability (%) (Mean) (Hep G2 cells [4]): 91.21%
- Liver (p/s) (Mean) (Balb/c mice): 1.70E+08 p/s
- Spleen (p/s) (Mean) (Balb/c mice): 8.56E+07 p/s
- Whole body (p/s) (Mean) (Balb/c mice): 1.04E+09 p/s
- MCP-1 at 2 h (MCP-1): 760 pg/mL
- MCP-1 at 24 h (MCP-1): 286 pg/mL
- IL-6 at 2 h (IL-6): 7.62 pg/mL
- IL-6 at 24 h (IL-6): 4.69 pg/mL
- Kidney (p/s) (C57BL/6J mice): 3.47E+07 p/s
- Large intestine (p/s) (C57BL/6J mice): 2.12E+08 p/s
- Liver (p/s) (C57BL/6J mice): 5.79E+09 p/s
- Small intestine (p/s) (C57BL/6J mice): 1.04E+09 p/s
- Spleen (p/s) (C57BL/6J mice): 2.95E+08 p/s
- Whole body (p/s) (C57BL/6J mice): 3.48E+09 p/s
